Entries after “also recorded” stand apart in the source; their conditions may differ.
Key:
[1] = test system: epidural fibrosis after laminectomy; assay: Rat laminectomy epidural fibrosis model, Example 8; format: in vivo
Protocol: Epidural fibrosis was investigated after laminectomies in adult Lewis rats. Laminectomies were performed at the lumbar 3 (L3) and 5 (L5) vertebrae. The test agent gel was applied to one site and saline (control) was applied to the other. Two weeks later, the laminectomy sites were examined for fibrosis by gross dissection as previously described. Briefly, rats were anesthetized. The dorsal skin was incised and the paraspinal muscles were separated from the spinous processes of lumbar vertebrae L2 through L6 to expose L3 and L5. The spinous processes of L3 and L5 and the vertebral lamina were removed, creating a rectangular laminectomy defect approximately 5×2 mm (FIG. 11A). The test material NM2040, or vehicle was placed onto the laminectomy site according to randomized, coded protocol (FIG. 11B). The formulation of NM2040 consisted of 10% gel foam powder, 20 mg/ml final concentration in sterile saline. The mixtures were placed in a syringe, autoclaved and allowed to cool to room temperature prior to placement into the laminectomy site. The fascia overlying the paraspinal muscles was sutured 5-0 polydoxanone PDS resorbable suture (Ethicon) and the skin incision was closed with 7.5 mm Michel wound clips. After two weeks, animals were anesthetized and subjected to gross evaluation. For gross evaluation, the wound site was reopened by incising the skin and separating the paraspinal muscles. Epidural scar formation was designated as the connective tissue between the test material and the dura mater. The thickness and toughness of the deep scar was evaluated by blunt dissection and scored 0 to 2.0 being the “no adhesions” with the dura mater clearly visible, 1 being a thin, lose connective tissue covering the dura that was easily removed, and 2 being a thick, dense tenacious adhesion that was difficult to impossible to remove without tearing the dura. Scoring was completed without knowledge of treatment at any of the laminectomy sites.

[2] = test system: epidural fibrosis after lumbar laminectomy; assay: Rat laminectomy epidural fibrosis model, Example 6; format: in vivo; conditions: two weeks after laminectomy
From the text: The scar tissue attachment to the spinal cord is believed to be the cause of long-term, recurrent pain following laminectomy procedures. The epidural fibrosis refers to the scar tissue that forms following a laminectomy procedure. Laminectomy refers to back surgery of the lamina. Scar tissue forms within the laminectomy site and binds the undersurface of the erector spinae muscles to the posterior and lateral surfaces of the dura mater and to the nerve roots exiting through the dura matter. Epidural fibrosis was investigated after lumbar laminectomy in rats. In this model, a laminectomy is performed at the lumbar 3 (L3) and 5 (L5) vertebrae and then the test agent is applied to the laminectomy site. Subsequently, the laminectomy sites are examined for fibrosis by gross dissection.
Laminectomies were performed at lumbar vertebrae L3 and L5 to provide auto-controls within each animal. Gelfoam-NM2040 mix was prepared and used on Laminectomy sites in rats. Lewis inbred rats were anesthetized isofluorane. The dorsal skin was incised and the paraspinal muscles were separated from the spinous processes of lumbar vertebrae L2 through L6 to expose the L3 and L5. The spinous processes of L3 and L5 were removed and the vertebral lamina was also removed creating a rectangular laminectomy defect. The test material was placed onto the laminectomy site. […] The site and the tissue were scored 0 to 2. […]

[3] = test system: neutrophils; assay: Neutrophil activation after tubing loop (flow cytometry CD15/CD11b); format: cell-based, human; conditions: blood after tubing loop
Protocol: (§1) Chemotactic peptides are produced at the injury site, which can attract inflammatory cells at the injury site causing inflammation. NM2040 was tested to determine if this compound would inhibit the production of the C3a and C5a. The compound was incubated with blood at 37 degree in a rotating tubing loops. Whole blood from a healthy donor was collected into a polypropylene tube containing 5 units of heparin per ml of whole blood. The whole blood was diluted 1:1 with plasmalyte and aliquoted in 2 ml aliquots with and without drug treatments. PVC tubings of 4 mm diameter were filled with 2.0 ml of the heparinized human blood and closed into a loop with a short piece of silicon tubing. […] The plasma samples were diluted to 5% with sample diluent buffer and the amounts of C3a and C5a were determined using ELISA assay kits following the manufacturer's instructions (Quidel Corporation, San Diego Calif.). […] In the same experiment, NM3015 was also evaluated. […]
(§2) Aliquots of blood following the tubing loop were stained with fluorescent labeled antibodies for flow cytometry studies. […] The samples were subjected to flow cytometry using CellQuest, BD-LSR I and the data were analyzed using WinList 5.0. Ln Median was used for calculating the shift in CD11b staining for neutrophils and monocytes. % gated dual labeled cells were quantified for platelet populations.

[4] = test system: platelets; assay: Platelet activation after tubing loop (flow cytometry CD61/CD62P); format: cell-based, human; conditions: blood after tubing loop
Protocol: as §1, §2

[5] = test system: 3T3 cells; assay: 3T3 cell proliferation assay (Cy Quant fluorescence); format: cell-based; conditions: 1 to 600 μg/ml, 5 days, DMEM 10% FCS
Protocol: Approximately 50,000 cells were plated in a 96 well ELISA plate. The cells were allowed to grow in DMEM with 10% FCS media for 5 days, following which the cells were treated with Cy Quant assay and the inhibition of cellular proliferation was measured using the decreased fluorescence intensity. To evaluate the effect of various concentrations of NM2040 in the cellular proliferation assay, cultures were treated with concentrations ranging from 1 to 600 μg/ml. The total fluorescence intensity was plotted against the concentrations.

[6] = test system: C3a; assay: C3a formation in whole blood tubing loop (ELISA); format: cell-based; conditions: heparinized human whole blood 1:1 plasmalyte, tubing loop 2 hours 37° C.
Protocol: (§3) Chemotactic peptides are produced at the injury site, which can attract inflammatory cells at the injury site causing inflammation. NM2040 was tested to determine if this compound would inhibit the production of the C3a and C5a. The compound was incubated with blood at 37 degree in a rotating tubing loops. Whole blood from a healthy donor was collected into a polypropylene tube containing 5 units of heparin per ml of whole blood. The whole blood was diluted 1:1 with plasmalyte and aliquoted in 2 ml aliquots with and without drug treatments. PVC tubings of 4 mm diameter were filled with 2.0 ml of the heparinized human blood and closed into a loop with a short piece of silicon tubing. Sample and control tubing loops were rotated vertically in a water bath for 2 hours at 37° C. After incubation, blood samples were transferred into 5 ml siliconized eppendorf tubes. The samples were separated into two aliquots; one aliquot was subjected to flow cytometry studies and the other aliquot was centrifuged to separate the plasma for the measurement of C3a and C5a. The plasma samples were diluted to 5% with sample diluent buffer and the amounts of C3a and C5a were determined using ELISA assay kits following the manufacturer's instructions (Quidel Corporation, San Diego Calif.). […] In the same experiment, NM3015 was also evaluated. […]

[7] = test system: platelets; assay: Platelet damage / platelet number after tubing loop (flow cytometry CD61/CD62P); format: cell-based, human; conditions: blood after tubing loop, FITC CD61 positive platelets
Protocol: as §3, with “The samples were separated into two aliquots; one aliquot was subjected to flow cytometry studies and the other aliquot was centrifuged to separate the plasma for the measurement of C3a and C5a.” left out
Aliquots of blood following the tubing loop were stained with fluorescent labeled antibodies for flow cytometry studies. […] The samples were subjected to flow cytometry using CellQuest, BD-LSR I and the data were analyzed using WinList 5.0. […]

[8] = test system: alternative pathway; assay: Alternative pathway (AP) activation; format: cell-based, human
Protocol: as §3

[9] = test system: monocytes; assay: Monocyte activation after tubing loop (flow cytometry CD14/CD11b); format: cell-based, human; conditions: blood after tubing loop
Protocol: as §1, §2

[10] = test system: C5a; assay: C5a formation in whole blood tubing loop (ELISA); format: cell-based; conditions: heparinized human whole blood 1:1 plasmalyte, tubing loop 2 hours 37° C.
Protocol: as §3

[11] = test system: C6 cells; assay: Glioma (C6 cell) proliferation in cloning ring culture; format: cell-based; conditions: five days; for concentration of maximal effect on glioma proliferation: C6 cells
Protocol: In a six well plate, a cloning ring of 6 mm diameter was placed and 60 μl aliquot of cellular suspension (stock containing 320,000 cells/ml of C6 cells) was prepared and placed in the center of each well of a six well plate in the cloning ring. After 4 h, the media was removed and the cells were incubated with Opti-MEM 1× media with and without the compound. These cultures were incubated at 37° C. and with 10% CO2 for five days, following which the pictures were taken as shown in FIG. 2. The compound effect appears to be dose dependent with maximal effect shown at […]. The first panel is for controls (untreated), the second panel at 3 mg/ml, the third panel at 1.5 mg/ml, the fourth panel at 0.75 mg/ml, and the fifth panel at 0.36 mg/ml.

## conjugate of dextran sulfate and 2-(butane-1-sulfonylamino)-3-[4-(4-piperidin-4-yl-butoxy)-phenyl]-propionic acid [NM2040]
[1]; two weeks after laminectomy
  adhesion scores compared to treatment with vehicle: significantly reduces adhesion scores
  gross appearance of laminectomy site: thin easily removed connective tissue above the dura to no adhesions
[1]; two weeks after laminectomy, gel at site, saline sites scored 2
  average gross evaluation score of epidural scar (0 to 2): 0.5
[1]; two weeks, compared to controls
  histological sections of the vertebral column at L3 (Masson trichrome): smooth filling
[1]; two weeks, compared to saline controls
  MRI appearance of laminectomy site: the tissue appears to be smooth
[2]
  adhesion scores compared to saline controls: significantly lower
[3]
  neutrophil activation (CD11b shift): significant inhibition of cellular activation
[4]
  platelet activation (% gated CD61/CD62P dual labeled): significant inhibition of cellular activation
[5]
  3T3 cell proliferation: Inhibits
[6]
  C3a production: prevent C3a and C5a production in a dose dependent manner
[7]
  effect on platelets (platelet damage / number): does not affect the platelets; also recorded: does not destroy platelets
[8]
  activation of the alternative pathway: inhibits activation of the alternative pathway
[9]
  monocyte activation (CD11b shift): significant inhibition of cellular activation
[10]
  C5a production: prevent C3a and C5a production in a dose dependent manner
[11]; C6 cells, 0.36, 0.75, 1.5 and 3 mg/ml
  glioma proliferation, effect: inhibitory at all doses
[11]; first statement
  concentration of maximal effect on glioma proliferation: 3 µg/mL
[11]; second statement
  concentration of maximal effect on glioma proliferation: ~1000 µg/mL
